Converted amounts (≈) assume the structure as drawn. The source made the active and inactive calls. The rule behind the calls is not given here.
Tests used:
[1] = tested on: Spodoptera littoralis; assay: Insecticidal activity against Spodoptera littoralis neonate larvae assessed as survival at 270 ppm in artificial diet after 6 days relative to control; format: functional
[2] = tested on: Staphylococcus aureus; assay: Antibacterial activity against Staphylococcus aureus ATCC 25923 at 100 ug after 24 hrs by agar plate diffusion assay; format: functional; conditions: ATCC 25923, 24 h, read-out: IZ
[3] = tested on: Bacillus subtilis; assay: Antibacterial activity against Bacillus subtilis 168 at 100 ug after 24 hrs by agar plate diffusion assay; format: functional; conditions: for zone of inhibition at 100 µg/disc: subsp. subtilis str. 168, 24 h, read-out: IZ
[4] = tested on: Escherichia coli; assay: Antibacterial activity against Escherichia coli ATCC 25922 at 100 ug after 24 hrs by agar plate diffusion assay; format: functional, organism-based
[5] = tested on: Spodoptera littoralis; assay: Insecticidal activity against Spodoptera littoralis neonate larvae assessed as survival treated with artificial diet after 6 days; format: functional, organism-based

Row | Molecule | Activity [1] [%] | zone of inhibition at 100 µg/disc [2] [mm] | zone of inhibition at 100 µg/disc [3] [mm] | Activity [4] | inhibition zone (IZ) ([3]; subsp. subtilis str. 168) [mm] | EC50 [5] [ppm] | LC50 ([5]; Spodoptera littoralis, 144 h) [µg/mL]
1 | C/C=C(/C)C(=O)OCC1C2=C(C=CN1/C=C/C(C)=O)C(=O)C(C)=C(OC)C2=O (stereo not given) | 50 | 15 | 15 | inactive |  |  | 
2 | GENTAMICIN |  |  |  |  | 16 |  | 
3 | COC1=C(C)C(=O)c2ccnc(C)c2C1=O | 93 | 9 | 12 | inactive |  | 35 | 521 (≈ 2400 µM)
4 | C/C=C(/C)C(=O)OCc1nccc2c1C(=O)C(OC)=C(C)C2=O [RENIERONE] | 60 | 14 | 15 | inactive |  |  | 
